The text below walks through data of ChEMBL document CHEMBL1201862, “PubChem BioAssay data set” (2004).

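Five compound concentrations were applied to cells in 96-well plates for 48 hours; endpoints were derived by simple linear interpolation of the resulting dose-response curve. At the GI50, growth is halved.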 Active and inactive are the calls of the source. Cut-off read from the data, not from the text of the source: active = GI50 up to about 1.1 µM and inactive = higher.

Test systems include UACC-62; SK-OV-3; SW-620; OVCAR-3; TK-10; RXF 393; OVCAR-8; U-251; 786-0; COLO 205; A498; HOP-62; NCI-H460; UACC-257; LOX IMVI; HCC 2998; RPMI-8226.
What all share (test): NCI-60 cell line screen, 48 h

In the case of `CC1(C)COC(c2cccnc2/C=N/O)=N1`, the GI50 in the assay on UACC-62 was > 100 µM (inactive); in the assay with SK-OV-3 it was > 100 µM (inactive); in the assay on SW-620, 67.8 µM (inactive); in the assay with OVCAR-3, > 100 µM (inactive); with TK-10, > 100 µM (inactive); in the assay on RXF 393, > 100 µM (inactive). Also, the GI50 in the assay on OVCAR-8, in the assay with U-251, in the assay with 786-0, in the assay on COLO 205, in the assay on A498 and with HOP-62 was > 100 µM (inactive) in each case. Further, the GI50 with NCI-H460, in the assay with UACC-257 and in the assay on LOX IMVI was > 100 µM (inactive) in each case.

For `N#Cc1cc([N+](=O)[O-])ccc1NC(=O)C(=O)C(C(=O)/C=C/c1ccccc1)C1OC(=O)c2ccccc21` (configuration not stated), the GI50 in the assay on UACC-62 was > 100 µM (inactive); in the assay on SK-OV-3, > 100 µM (inactive); in the assay with SW-620, > 100 µM (inactive); with OVCAR-3, > 100 µM (inactive); in the assay on TK-10 it was > 100 µM (inactive); in the assay with RXF 393, 60.5 µM (inactive). The GI50 with OVCAR-8, in the assay on U-251, in the assay with HCC 2998, in the assay on 786-0, with COLO 205 and in the assay with A498 was > 100 µM (inactive) in each case. The GI50 in the assay on HOP-62, in the assay on NCI-H460, in the assay on UACC-257 and in the assay with LOX IMVI was > 100 µM (inactive) each time.

Regarding `CCC(C)(C)C(=O)O[C@H]1C[C@@H](C)C=C2C=C[C@H](C)[C@H](CC[C@@H]3C[C@@H](O)CC(=O)O3)[C@H]21` [SIMVASTATIN], the GI50 with UACC-62 was 0.469 µM (active); in the assay with SK-OV-3 it was 1.72 µM (inactive); in the assay on SW-620, 9.59 µM (inactive); with OVCAR-3, 23.1 µM (inactive); with RXF 393 it was 0.811 µM (active); in the assay on OVCAR-8, 1.37 µM (inactive). The GI50 in the assay with U-251 is 0.766 µM (active); with HCC 2998, 16.5 µM (inactive); with 786-0, 9.33 µM (inactive); in the assay on COLO 205, 12.1 µM (inactive); in the assay with A498 it was 0.902 µM (active); in the assay with HOP-62 it was 9.2 µM (inactive). Besides, the GI50 in the assay with NCI-H460 was 9.08 µM (inactive); in the assay with UACC-257, 17.3 µM (inactive); in the assay with RPMI-8226, 8.2 µM (inactive).

Consider `C/C(=N/NC(=O)C[N+](C)(C)C)C(CN(C)C)C(=O)Nc1ccccc1` (configuration not stated), for which the GI50 in the assay with UACC-62, with SK-OV-3, in the assay with SW-620, in the assay on OVCAR-3, in the assay with TK-10 and with RXF 393 was > 100 µM (inactive) throughout. In addition, the GI50 was > 100 µM (inactive) in the assay on OVCAR-8; > 100 µM (inactive) in the assay on U-251; 96.8 µM (inactive) in the assay with HCC 2998; > 100 µM (inactive) in the assay with 786-0; > 100 µM (inactive) with COLO 205; > 100 µM (inactive) in the assay on A498. Moreover, the GI50 in the assay on HOP-62, in the assay on NCI-H460, in the assay on UACC-257 and in the assay with LOX IMVI was > 100 µM (inactive) each time.

With `COc1cc(-c2c(C)c(C)nc(OC)c2C#N)cc(OC)c1OC`, the GI50 in the assay with UACC-62 was 40.6 µM (inactive); in the assay on SK-OV-3, > 100 µM (inactive); with SW-620 it was > 100 µM (inactive); with OVCAR-3 it was > 100 µM (inactive); in the assay on TK-10, > 100 µM (inactive); in the assay with RXF 393, 44.2 µM (inactive). For the same compound, the GI50 with OVCAR-8, in the assay with U-251, in the assay on HCC 2998, in the assay with 786-0, with COLO 205 and in the assay with A498 was > 100 µM (inactive) in each case. Moreover, the GI50 in the assay on HOP-62 was > 100 µM (inactive); in the assay with NCI-H460, > 100 µM (inactive); in the assay on UACC-257, 82.2 µM (inactive); in the assay with RPMI-8226, 37.4 µM (inactive).

For the compound `N#CC(C(=O)C(N)=O)c1ccccc1Cl` (configuration not stated), the GI50 with UACC-62, in the assay on SK-OV-3, in the assay with SW-620, in the assay with OVCAR-3, with TK-10 and in the assay on RXF 393 was > 100 µM (inactive) in each case. Besides, the GI50 in the assay on OVCAR-8, with U-251, in the assay on HCC 2998, with 786-0, in the assay on COLO 205 and in the assay with A498 was > 100 µM (inactive) throughout. Besides, the GI50 in the assay with NCI-H460, in the assay with UACC-257, in the assay on RPMI-8226 and with LOX IMVI was > 100 µM (inactive) in each case.

For `NN1C(=O)C(CCO)S/C1=N/N=C1/SC(CCO)C(=O)N1N` (configuration not stated), the GI50 in the assay on UACC-62, in the assay with SK-OV-3, with SW-620, in the assay on OVCAR-3, with RXF 393 and with OVCAR-8 was > 100 µM (inactive) in each case. Further, the GI50 with U-251, in the assay on HCC 2998, with 786-0, in the assay on COLO 205, in the assay with A498 and with HOP-62 was > 100 µM (inactive) in each case. The GI50 in the assay on NCI-H460, in the assay with UACC-257, in the assay with RPMI-8226 and in the assay on LOX IMVI was > 100 µM (inactive) throughout.

For `CC(=O)OC1CC2(c3ccccc3)C(=O)c3ccccc3N2O1` (configuration not stated), the GI50 in the assay on UACC-62, in the assay with SK-OV-3, in the assay with SW-620, in the assay with RXF 393, in the assay with OVCAR-8 and with U-251 was > 100 µM (inactive) throughout. Further, the GI50 with HCC 2998, with 786-0, with COLO 205, in the assay with A498, in the assay with HOP-62 and with UACC-257 was > 100 µM (inactive) each time. Besides, the GI50 in the assay with RPMI-8226 is > 100 µM (inactive).

Consider `O=C(O)[C@@H]1OCCOCCO[C@@H](C(=O)O)[C@H](C(=O)O)OCCOCCO[C@H]1C(=O)O`, for which the GI50 in the assay on UACC-62 is > 100 µM (inactive); in the assay with SK-OV-3, > 100 µM (inactive); in the assay on SW-620 it was > 50.1 µM (inactive); with OVCAR-3, > 100 µM (inactive); with TK-10, > 100 µM (inactive); in the assay on OVCAR-8 it was > 100 µM (inactive). The GI50 is > 42.1 µM (inactive) in the assay on U-251; > 100 µM (inactive) in the assay with HCC 2998; > 100 µM (inactive) with 786-0; > 61.7 µM (inactive) in the assay with COLO 205; > 100 µM (inactive) in the assay on A498; > 100 µM (inactive) in the assay on HOP-62. The GI50 was > 64.4 µM (inactive) with NCI-H460, > 100 µM (inactive) in the assay with UACC-257, > 38.4 µM (inactive) in the assay with RPMI-8226 and > 71.3 µM (inactive) in the assay on LOX IMVI.

Consider `O=C(/C=C/c1ccccc1)CC1OC(=O)c2ccccc21` (configuration not stated), for which the GI50 in the assay with UACC-62 is 26.1 µM (inactive); with SK-OV-3, > 100 µM (inactive); in the assay with SW-620 it was 84.3 µM (inactive); in the assay with TK-10, > 100 µM (inactive); in the assay with RXF 393, > 100 µM (inactive); in the assay on OVCAR-8 it was > 100 µM (inactive). For the same compound, the GI50 in the assay with U-251, in the assay on HCC 2998, in the assay on 786-0, in the assay on COLO 205, in the assay with A498 and in the assay with HOP-62 was > 100 µM (inactive) in each case. Also, the GI50 in the assay with NCI-H460 was > 100 µM (inactive); in the assay on UACC-257 it was 81.8 µM (inactive); in the assay with RPMI-8226 it was 24.2 µM (inactive); with LOX IMVI, 49.7 µM (inactive).

Turning to `CCCC1N2CCCCC2[C@@H]2c3[nH]c4ccccc4c3CCN12` (some centres not stated), the GI50 with UACC-62 is 85.1 µM (inactive); with SK-OV-3, > 100 µM (inactive); in the assay on SW-620 it was > 100 µM (inactive); in the assay with OVCAR-3, > 100 µM (inactive); with RXF 393 it was > 100 µM (inactive); in the assay with OVCAR-8, > 100 µM (inactive). The GI50 in the assay with U-251, with HCC 2998, with 786-0, in the assay with COLO 205, in the assay with A498 and in the assay with HOP-62 was > 100 µM (inactive) throughout. For the same compound, the GI50 in the assay with NCI-H460, with UACC-257 and in the assay on RPMI-8226 was > 100 µM (inactive) throughout.

On to `c1ccc(SC2(Sc3ccccc3)CCCC2)cc1`, for which the GI50 with UACC-62, with SK-OV-3, in the assay with SW-620, in the assay on OVCAR-3, in the assay with TK-10 and with RXF 393 was > 100 µM (inactive) in each case. In addition, the GI50 in the assay with OVCAR-8, in the assay with U-251, in the assay with 786-0, in the assay with COLO 205, in the assay on A498 and in the assay on HOP-62 was > 100 µM (inactive) each time. For the same compound, the GI50 in the assay on NCI-H460, with UACC-257, in the assay on RPMI-8226 and in the assay with LOX IMVI was > 100 µM (inactive) throughout.

For `Oc1ccc2ccccc2c1/N=N/c1ccc(F)cc1`, the GI50 in the assay with UACC-62, in the assay with SK-OV-3, in the assay with SW-620, in the assay on OVCAR-3, with TK-10 and in the assay on RXF 393 was > 100 µM (inactive) throughout. Moreover, the GI50 in the assay with OVCAR-8, in the assay on U-251, with HCC 2998, in the assay on 786-0, in the assay on COLO 205 and in the assay on A498 was > 100 µM (inactive) each time. Also, the GI50 in the assay with HOP-62, in the assay on NCI-H460, in the assay on RPMI-8226 and in the assay with LOX IMVI was > 100 µM (inactive) throughout.
